Results reported in PubChem BioAssay AID180 (DTP/NCI, 2004).
Several values for one entry are separate records, joined by “and”; a condition that tells them apart may be missing. Equal entries are not always repeated.

Tested on: BDF1 mice, Adenocarcinoma 755 s.c., tumor weight T/C
Assay: NCI In Vivo Anticancer Drug Screen. Data for tumor model Adenocarcinoma 755 (subcutaneous) in B6D2F1 (BDF1) mice
Details: endpoint: mean tumor weight, higher = larger tumour
Summary of the method: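 Values express treated (T) relative to vehicle-dosed control (C) animals, based on survival or tumour size measured after compound treatment of mice bearing a transplanted tumour.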

[1] = dose: 12.5 mg/kg/injection, schedule: Q01DX011 (ip), vehicle: saline
[2] = dose: 25.0 mg/kg/injection, schedule: Q01DX011 (ip), vehicle: saline
[3] = dose: 50.0 mg/kg/injection, schedule: Q01DX011 (ip), vehicle: saline
[4] = dose: 5.0 mg/kg/injection, schedule: Q01DX011 (ip), vehicle: carboxymethylcellulose (CMC)
[5] = dose: 10.0 mg/kg/injection, schedule: Q01DX011 (ip), vehicle: carboxymethylcellulose (CMC)
[6] = dose: 100.0 mg/kg/injection, schedule: Q01DX011 (ip), vehicle: carboxymethylcellulose (CMC)
[7] = dose: 30.0 mg/kg/injection, schedule: Q01DX011 (ip), vehicle: carboxymethylcellulose (CMC)
[8] = dose: 60.0 mg/kg/injection, schedule: Q01DX011 (ip), vehicle: carboxymethylcellulose (CMC)
[9] = dose: 120.0 mg/kg/injection, schedule: Q01DX011 (ip), vehicle: carboxymethylcellulose (CMC)
[10] = dose: 240.0 mg/kg/injection, schedule: Q01DX011 (ip), vehicle: carboxymethylcellulose (CMC)

With `NC1=CC(=O)c2cccnc2C1=O` the T/C (dose: 6.5 mg/kg/injection, schedule: Q01DX011 (ip), vehicle: water) was 111 % of control, the T/C (dose: 10.0 mg/kg/injection, schedule: Q01DX011 (ip), vehicle: water) was 87 % of control and the T/C (dose: 15.0 mg/kg/injection, schedule: Q01DX011 (ip), vehicle: water) was 69 % of control.
`CC1CN1P(=O)(N1CCCC1)N1CC1C` (configuration not stated) was tested, and the T/C (dose: 6.3 mg/kg/injection, schedule: Q01DX011 (ip), vehicle: saline) was 73 % of control, the T/C [1] was 58 % of control and the T/C [2] was 19 % of control and 20 % of control. For the same compound, the T/C [3] was 2 % of control and 3 % of control.
In the case of `COCCCNS(=O)(=O)c1ncnc2nc[nH]c12`, the T/C (dose: 1.0 mg/kg/injection, schedule: Q01DX011 (ip), vehicle: carboxymethylcellulose (CMC)) is reported as 79 % of control, the T/C (dose: 1.0 mg/kg/injection, schedule: Q01DX011 (ip), vehicle: saline) is reported as 74 % of control and the T/C (dose: 2.5 mg/kg/injection, schedule: Q01DX011 (ip), vehicle: saline) is reported as 96 % of control. The T/C (dose: 3.0 mg/kg/injection, schedule: Q01DX011 (ip), vehicle: carboxymethylcellulose (CMC)) was 63 % of control and 81 % of control, the T/C (dose: 3.0 mg/kg/injection, schedule: Q01DX011 (ip), vehicle: saline) was 163 % of control and the T/C [4] was 86 % of control. The T/C (dose: 6.0 mg/kg/injection, schedule: Q01DX011 (ip), vehicle: other) was 105 % of control, the T/C [5] was 80 % of control and the T/C (dose: 12.0 mg/kg/injection, schedule: Q01DX011 (ip), vehicle: other) was 43 % of control. The T/C (dose: 12.5 mg/kg/injection, schedule: Q01DX011 (ip), vehicle: carboxymethylcellulose (CMC)) was 8 % of control (2×) and 30 % of control, the T/C [1] was 24 % of control and the T/C (dose: 25.0 mg/kg/injection, schedule: Q01DX011 (ip), vehicle: other) was 37 % of control. The T/C [2] was 5 % of control and 9 % of control, the T/C (dose: 50.0 mg/kg/injection, schedule: Q01DX011 (ip), vehicle: carboxymethylcellulose (CMC)) was 3 % of control and 4 % of control and the T/C [3] was 5 % of control. The T/C [6] was 3 % of control, the T/C (dose: 100.0 mg/kg/injection, schedule: Q01DX011 (ip), vehicle: other) was 7 % of control and the T/C (dose: 200.0 mg/kg/injection, schedule: Q01DX011 (ip), vehicle: saline) was 1 % of control.
With `CN(C)c1ccc2nc3ccc(=[N+](C)C)cc-3sc2c1` the T/C [4] was 51 % of control, the T/C (dose: 5.24 mg/kg/injection, schedule: Q01DX011 (ip), vehicle: carboxymethylcellulose (CMC)) was 69 % of control and the T/C (dose: 5.76 mg/kg/injection, schedule: Q01DX011 (ip), vehicle: carboxymethylcellulose (CMC)) was 103 % of control. The T/C [5] was 99 % of control, the T/C (dose: 10.48 mg/kg/injection, schedule: Q01DX011 (ip), vehicle: carboxymethylcellulose (CMC)) was 109 % of control and the T/C (dose: 11.53 mg/kg/injection, schedule: Q01DX011 (ip), vehicle: carboxymethylcellulose (CMC)) was 97 % of control. The T/C (dose: 20.0 mg/kg/injection, schedule: Q01DX011 (ip), vehicle: carboxymethylcellulose (CMC)) was 113 % of control, the T/C (dose: 20.95 mg/kg/injection, schedule: Q01DX011 (ip), vehicle: carboxymethylcellulose (CMC)) was 100 % of control and the T/C (dose: 25.0 mg/kg/injection, schedule: Q01DX011 (ip), vehicle: carboxymethylcellulose (CMC)) was 123 % of control. For the same compound, the T/C [7] was 103 % of control, the T/C (dose: 35.0 mg/kg/injection, schedule: Q01DX011 (ip), vehicle: carboxymethylcellulose (CMC)) was 104 % of control and the T/C (dose: 40.0 mg/kg/injection, schedule: Q01DX011 (ip), vehicle: carboxymethylcellulose (CMC)) was 68 % of control.
`O=C(CCBr)N1CCCN(C(=O)CCBr)CC1` was tested, and the T/C (dose: 28.0 mg/kg/injection, schedule: Q01DX011 (ip), vehicle: carboxymethylcellulose (CMC)) was 85 % of control, the T/C (dose: 57.0 mg/kg/injection, schedule: Q01DX011 (ip), vehicle: carboxymethylcellulose (CMC)) was 60 % of control and the T/C (dose: 57.0 mg/kg/injection, schedule: Q01DX011 (ip), vehicle: methylcellulose (MC)) was 58 % of control and 78 % of control. The T/C (dose: 113.0 mg/kg/injection, schedule: Q01DX011 (ip), vehicle: carboxymethylcellulose (CMC)) was 16 % of control and the T/C (dose: 113.0 mg/kg/injection, schedule: Q01DX011 (ip), vehicle: methylcellulose (MC)) was 35 % of control.
In the case of `[N-]=[N+]=NC1(C(=O)O)CCCC1`, the T/C (dose: 15.0 mg/kg/injection, schedule: Q01DX011 (ip), vehicle: carboxymethylcellulose (CMC)) is reported as 109 % of control, the T/C [7] is reported as 100 % of control and the T/C [8] is reported as 120 % of control.
With `C[C@H]1C[C@H]2[C@@H]3CC[C@](O)(C(=O)CO)[C@@]3(C)C[C@H](O)[C@]2(F)[C@@]2(C)C=CC(=O)C=C12` the T/C (dose: 7.0 mg/kg/injection, schedule: Q01DX011 (sc), vehicle: steriod suspending solution) was 39 % of control and 49 % of control and the T/C (dose: 30.0 mg/kg/injection, schedule: Q01DX011 (sc), vehicle: steriod suspending solution) was 7 % of control and 16 % of control.
In the case of `CC(=O)OCC(=O)C1(O)CCC2C3CCC4=CC(=O)CCC4(C)C34OC4CC21C` (configuration not stated), the T/C (dose: 25.0 mg/kg/injection, schedule: Q01DX011 (sc), vehicle: steriod suspending solution) is reported as 87 % of control, the T/C (dose: 200.0 mg/kg/injection, schedule: Q01DX011 (sc), vehicle: steriod suspending solution) is reported as 44 % of control and the T/C (dose: 450.0 mg/kg/injection, schedule: Q01DX011 (sc), vehicle: steriod suspending solution) is reported as 17 % of control.
In the case of `CC(=O)OCC(=O)[C@@]1(O)CC[C@H]2[C@@H]3C=C(C)C4=CC(=O)CC[C@]4(C)[C@H]3[C@@H](O)C[C@@]21C`, the T/C (dose: 11.2 mg/kg/injection, schedule: Q01DX011 (sc), vehicle: steriod suspending solution) is reported as 36 % of control and 57 % of control, the T/C (dose: 22.5 mg/kg/injection, schedule: Q01DX011 (sc), vehicle: steriod suspending solution) is reported as 42 % of control and 50 % of control and the T/C (dose: 45.0 mg/kg/injection, schedule: Q01DX011 (sc), vehicle: steriod suspending solution) is reported as 23 % of control and 24 % of control. For the same compound, the T/C (dose: 90.0 mg/kg/injection, schedule: Q01DX011 (sc), vehicle: steriod suspending solution) was 15 % of control and 16 % of control and the T/C (dose: 180.0 mg/kg/injection, schedule: Q01DX011 (sc), vehicle: steriod suspending solution) was 10 % of control.
`Cn1c(N)nc2n[nH]nc2c1=O` was tested, and the T/C [7] was 105 % of control, the T/C [8] was 119 % of control and the T/C [6] was 98 % of control. The T/C [9] was 46 % of control and the T/C [10] was 97 % of control.
In the case of `Cc1ccc(C(=O)[O][Hg][CH2]C2COC([CH2][Hg][O]C(=O)c3ccc(C)cc3)CO2)cc1` (configuration not stated), the T/C (dose: 6.25 mg/kg/injection, schedule: Q01DX011 (ip), vehicle: methylcellulose (MC)) is reported as 101 % of control, the T/C (dose: 25.0 mg/kg/injection, schedule: Q01DX011 (ip), vehicle: methylcellulose (MC)) is reported as 61 % of control and the T/C (dose: 50.0 mg/kg/injection, schedule: Q01DX011 (ip), vehicle: methylcellulose (MC)) is reported as 38 % of control.
For `N=[N+]=CC(=O)OCC(N)C(=O)O` (configuration not stated), the T/C (dose: 0.9 mg/kg/injection, schedule: Q01DX011 (ip), vehicle: carboxymethylcellulose (CMC)) was 124 % of control, the T/C (dose: 1.8 mg/kg/injection, schedule: Q01DX011 (ip), vehicle: carboxymethylcellulose (CMC)) was 111 % of control and the T/C (dose: 2.31 mg/kg/injection, schedule: Q01DX011 (ip), vehicle: carboxymethylcellulose (CMC)) was 72 % of control. The T/C (dose: 3.6 mg/kg/injection, schedule: Q01DX011 (ip), vehicle: carboxymethylcellulose (CMC)) was 90 % of control and 78 % of control, the T/C (dose: 4.63 mg/kg/injection, schedule: Q01DX011 (ip), vehicle: carboxymethylcellulose (CMC)) was 61 % of control and the T/C (dose: 4.8 mg/kg/injection, schedule: Q01DX011 (ip), vehicle: carboxymethylcellulose (CMC)) was 62 % of control and 74 % of control. For the same compound, the T/C (dose: 7.2 mg/kg/injection, schedule: Q01DX011 (ip), vehicle: carboxymethylcellulose (CMC)) was 28 % of control and 40 % of control and 51 % of control, the T/C (dose: 7.4 mg/kg/injection, schedule: Q01DX011 (ip), vehicle: carboxymethylcellulose (CMC)) was 50 % of control and the T/C (dose: 9.25 mg/kg/injection, schedule: Q01DX011 (ip), vehicle: carboxymethylcellulose (CMC)) was 50 % of control and 66 % of control. The T/C (dose: 12.33 mg/kg/injection, schedule: Q01DX011 (ip), vehicle: carboxymethylcellulose (CMC)) was 23 % of control and the T/C (dose: 18.5 mg/kg/injection, schedule: Q01DX011 (ip), vehicle: carboxymethylcellulose (CMC)) was 10 % of control.
`[O-][N+](CCO)(CCO)c1ncnc2nc[nH]c12` was tested, and the T/C [2] was 121 % of control, the T/C (dose: 75.0 mg/kg/injection, schedule: Q01DX011 (ip), vehicle: saline) was 72 % of control and the T/C (dose: 225.0 mg/kg/injection, schedule: Q01DX011 (ip), vehicle: saline) was 82 % of control.
In the case of `O=C1CCC(N2C(=O)c3ccccc3C2=O)C(=O)N1` (configuration not stated), the T/C (dose: 250.0 mg/kg/injection, schedule: Q01DX011 (ip), vehicle: carboxymethylcellulose (CMC)) is reported as 48 % of control and the T/C (dose: 375.0 mg/kg/injection, schedule: Q01DX011 (ip), vehicle: carboxymethylcellulose (CMC)) is reported as 56 % of control.
In the case of `Nc1[nH]c(=S)ncc1NC=O`, the T/C [7] is reported as 90 % of control, the T/C [9] is reported as 91 % of control and the T/C [10] is reported as 79 % of control.
